Test systems include DLD-1; DMS-114; HOP-18; KM-20L2; LXFL 529; M19-MEL; SNB-78; XF498; RXF 631.
What all share (experiment): NCI tumour cell line growth inhibition, 48 h

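Tested at 5 concentrations; 48 h exposure; 96-well plates; endpoints linearly interpolated, else capped at highest concentration. GI50 = concentration required for 50% inhibition of growth.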 Calls of active or inactive are those of the source. Cut-off read from the data, not from the text of the source: active = GI50 up to about 1.1 µM and inactive = higher.

For `O=[N+]([O-])c1cccc(/C=N/C23CC4CC(CC(C4)C2)C3)c1`, the GI50 in the test on DLD-1, in the test with DMS-114, in the test on HOP-18, with KM-20L2, in the test on LXFL 529 and with M19-MEL was > 100 µM (inactive) each time. In addition, the GI50 with SNB-78 and with XF498 was > 100 µM (inactive) throughout.
`NC(=O)c1csc(C2C=CC(CO)O2)n1` (centres undefined): the GI50 with DMS-114, in the test on HOP-18, in the test with KM-20L2, in the test on LXFL 529, with RXF 631 and in the test with SNB-78 was > 100 µM (inactive) throughout. Further, in the test on XF498, the GI50 was > 100 µM (inactive).
With `CC(C)c1ccccc1NC(=O)CCc1n[nH]c(=S)o1`, the GI50 in the test with DLD-1 was > 54.5 µM (inactive); in the test with DMS-114, > 67 µM (inactive); in the test on HOP-18, > 100 µM (inactive); in the test on KM-20L2, > 100 µM (inactive); in the test on LXFL 529, > 79.8 µM (inactive); in the test on M19-MEL, > 100 µM (inactive). The GI50 in the test on RXF 631, in the test with SNB-78 and in the test with XF498 was > 100 µM (inactive) throughout.
`COc1cc(CCc2ccncc2)cc(OC)c1OC`: the GI50 with DLD-1, in the test on DMS-114, with HOP-18, in the test on KM-20L2, in the test with LXFL 529 and with M19-MEL was > 100 µM (inactive) each time. Besides, the GI50 in the test on RXF 631, in the test with SNB-78 and in the test with XF498 was > 100 µM (inactive) in each case.
For `CC(=O)c1c(O)c2c([nH]c1=O)CCCC2`, the GI50 in the test on DLD-1 is 21.6 µM (inactive); in the test on DMS-114, 25.4 µM (inactive); with HOP-18, > 100 µM (inactive); in the test with KM-20L2, 43.1 µM (inactive); in the test on LXFL 529, > 100 µM (inactive); in the test on M19-MEL it was 21 µM (inactive). For the same molecule, the GI50 in the test on RXF 631 was 21.8 µM (inactive); in the test on SNB-78, > 100 µM (inactive); in the test with XF498 it was 64.6 µM (inactive).
As to `CSC(C1c2ccccc2N(c2ccc(C)cc2)C2=NC(=O)N(C)C(=O)C21Cl)S(=O)(=O)c1ccc(C)cc1` (centres undefined), the GI50 with DLD-1 is 16.3 µM (inactive); in the test on DMS-114 it was 19 µM (inactive); in the test on KM-20L2, 21.7 µM (inactive); with LXFL 529, 17.5 µM (inactive); in the test with M19-MEL, 23.7 µM (inactive); in the test with SNB-78, 27.9 µM (inactive). The GI50 with XF498 was 30.8 µM (inactive).
For the molecule `O=S(=O)(N/N=C/c1ccc(Cl)cc1Cl)c1ccccc1`, the GI50 is > 100 µM (inactive) in the test with DLD-1; 29.4 µM (inactive) in the test with DMS-114; 57.5 µM (inactive) with HOP-18; 85.1 µM (inactive) in the test on KM-20L2; 74.3 µM (inactive) in the test on LXFL 529; > 100 µM (inactive) in the test with M19-MEL. For the same molecule, the results for the GI50 with RXF 631, with SNB-78 and with XF498 were 61.1 µM (inactive), > 100 µM (inactive) and 78.7 µM (inactive), respectively.
Take `Cc1cc(C)nc(NS(=O)(=O)c2ccc(Nc3c4ccccc4nc4c(C(=O)NCCN(C)C)cccc34)cc2)n1`: the GI50 was 5.15 µM (inactive) in the test on DLD-1; 1.04 µM (active) with DMS-114; 6.61 µM (inactive) in the test with KM-20L2; 4.25 µM (inactive) in the test with LXFL 529; 3.44 µM (inactive) with M19-MEL; 0.986 µM (active) in the test with RXF 631. Further, the results for the GI50 in the test on SNB-78 and in the test on XF498 were 11.5 µM (inactive) and 13.7 µM (inactive), respectively.
As for `N/N=C(\CCN1CCCC1)CC(c1ccccc1)c1c(O)c2ccccc2oc1=O` (centres undefined), the GI50 with DLD-1, with DMS-114, in the test on HOP-18, in the test on KM-20L2, with LXFL 529 and in the test with M19-MEL was > 100 µM (inactive) each time. In addition, in the test on SNB-78, the GI50 was > 100 µM (inactive).
For `COC(=O)C1=C(O)c2cc(-c3ccccc3)c(-c3ccccc3)c(C#N)c2NC(=O)C1`, the GI50 is 6.3 µM (inactive) with DLD-1; 29.6 µM (inactive) in the test on DMS-114; < 0.01 µM (active) in the test with HOP-18; 13.1 µM (inactive) in the test on KM-20L2; 1.3 µM (inactive) in the test on LXFL 529; 14.5 µM (inactive) in the test on M19-MEL. Further, the values for the GI50 with RXF 631, in the test with SNB-78 and in the test with XF498 were 3.56 µM (inactive), 14 µM (inactive) and 49 µM (inactive), respectively.
`CCCNCCCCC(NC(C)=O)C(=O)NCc1ccccc1` (centres undefined): the GI50 in the test with DLD-1, with DMS-114, in the test on KM-20L2, in the test on LXFL 529, in the test with M19-MEL and in the test on RXF 631 was > 100 µM (inactive) throughout. In addition, the GI50 with SNB-78 and with XF498 was > 100 µM (inactive) throughout.
As for `Cc1cc2c(C)n[nH]c2c(C(=O)O)c1C`, the GI50 in the test with DLD-1 is > 100 µM (inactive); with DMS-114, > 100 µM (inactive); with KM-20L2, > 100 µM (inactive); in the test with LXFL 529, > 100 µM (inactive); in the test with M19-MEL, > 100 µM (inactive); in the test with SNB-78, 36.2 µM (inactive). Moreover, the GI50 with XF498 was > 100 µM (inactive).
As to `Cc1nc2ccccc2[s+]c1-c1cnc(NC#N)nc1C(=O)Nc1cccc(Cl)c1`, the GI50 in the test with DLD-1, in the test on DMS-114, in the test on HOP-18, with KM-20L2, in the test with LXFL 529 and in the test with M19-MEL was > 100 µM (inactive) throughout. The GI50 with SNB-78 is > 100 µM (inactive).
On to `O=C(N/C(=C\c1ccc(/C=C(\NC(=O)c2ccccc2)c2nc3ccccc3[nH]2)cc1)c1nc2ccccc2[nH]1)c1ccccc1`, for which the GI50 in the test on DLD-1, in the test with DMS-114, in the test with HOP-18, in the test on KM-20L2, in the test on LXFL 529 and in the test on M19-MEL was > 100 µM (inactive) each time. The GI50 in the test on SNB-78 and in the test on XF498 was > 100 µM (inactive) in each case.
As to `COC1CC(n2cc(F)c(N)nc2=O)OC1CO` (centres undefined), the GI50 was > 100 µM (inactive) in the test with DLD-1; > 100 µM (inactive) in the test on DMS-114; 49.4 µM (inactive) in the test on HOP-18; > 100 µM (inactive) with KM-20L2; > 100 µM (inactive) in the test with LXFL 529; > 100 µM (inactive) with RXF 631. In addition, the GI50 in the test with SNB-78 and in the test on XF498 was > 100 µM (inactive) in each case.
For the molecule `C=C(C(=C)P(=S)(C(C)C)C(C)C)P(=S)(C(C)C)C(C)C`, the GI50 in the test with DLD-1, in the test on DMS-114, in the test with KM-20L2, in the test with LXFL 529, in the test on M19-MEL and in the test with RXF 631 was > 100 µM (inactive) in each case. Besides, the GI50 in the test with SNB-78 and with XF498 was > 100 µM (inactive) throughout.
On to `Fc1ccc(C2SCc3nc4ccccc4n32)cc1Cl` (centres undefined), for which the GI50 in the test with DLD-1 was 23 µM (inactive); in the test with DMS-114, 19.9 µM (inactive); with KM-20L2, 29.9 µM (inactive); with LXFL 529 it was 18.6 µM (inactive); with M19-MEL, 19.8 µM (inactive); in the test with RXF 631, 32.9 µM (inactive). Further, the GI50 in the test with SNB-78 was 48.8 µM (inactive); in the test on XF498, 14 µM (inactive).
For the molecule `Brc1ccccc1/C=N\C12CC3CC(CC(C3)C1)C2`, the GI50 in the test with DLD-1 is 1.41 µM (inactive); with DMS-114, 5.77 µM (inactive); in the test on HOP-18 it was > 100 µM (inactive); with KM-20L2, > 100 µM (inactive); in the test on LXFL 529 it was 10.3 µM (inactive); with M19-MEL it was > 76.6 µM (inactive). In addition, the GI50 is > 79.4 µM (inactive) with RXF 631, > 91.4 µM (inactive) with SNB-78 and > 100 µM (inactive) in the test with XF498.
Turning to `CS(=O)(=O)CS(=O)(=O)OCCCl`, the GI50 in the test with DLD-1 was 333 µM (inactive); in the test on DMS-114 it was 86.7 µM (inactive); with HOP-18 it was 438 µM (inactive); in the test on KM-20L2 it was 565 µM (inactive); with M19-MEL it was 286 µM (inactive); in the test with SNB-78 it was 96.8 µM (inactive).
Regarding `Cc1ccc(S(=O)(=O)OC2CS[S+]([O-])CC2OS(=O)(=O)c2ccc(C)cc2)cc1` (centres undefined), the GI50 in the test with DLD-1 is 9.27 µM (inactive); in the test with DMS-114, 17.9 µM (inactive); in the test on HOP-18, 22.6 µM (inactive); in the test with KM-20L2 it was 17.7 µM (inactive); in the test on LXFL 529, 14.5 µM (inactive); in the test with M19-MEL it was 16.6 µM (inactive). Further, the GI50 was 16.6 µM (inactive) in the test on RXF 631, 17 µM (inactive) in the test with SNB-78 and 13.6 µM (inactive) with XF498.
Consider `O=C(CC1(O)C(=O)Nc2c(Cl)ccc(Cl)c21)c1ccc(Cl)cc1` (centres undefined), for which the GI50 in the test on DLD-1 is 38 µM (inactive); with DMS-114, 24.1 µM (inactive); with HOP-18, 44.2 µM (inactive); in the test with KM-20L2 it was 38.1 µM (inactive); in the test with LXFL 529, 25.2 µM (inactive); with M19-MEL, 18.4 µM (inactive). For the same molecule, the GI50 is 23.8 µM (inactive) with RXF 631, 49.1 µM (inactive) with SNB-78 and 19.1 µM (inactive) in the test with XF498.
For the molecule `CN(C)CCC(/C=C/c1ccccc1)=N\Nc1ccc(Cl)c(Cl)c1`, the GI50 with DLD-1 is 3.49 µM (inactive); with HOP-18 it was 2.67 µM (inactive); in the test with KM-20L2 it was 2.02 µM (inactive); with LXFL 529, 2 µM (inactive); with M19-MEL, 4.31 µM (inactive); with RXF 631 it was 2.37 µM (inactive). The GI50 in the test with SNB-78 is 3.58 µM (inactive); in the test on XF498, 2.3 µM (inactive).
As for `O=C(O)c1c2c(cc3c(=O)c4ccccc4[nH]c13)CCCC2`, the GI50 in the test on HOP-18, in the test with KM-20L2, in the test on LXFL 529, in the test with M19-MEL, in the test on RXF 631 and in the test on SNB-78 was > 100 µM (inactive) each time. Besides, the GI50 in the test with XF498 was > 100 µM (inactive).

The record behind these values is ChEMBL document CHEMBL1201862, “PubChem BioAssay data set” (2004).
